From US8895585B2, “Nicotinamide derivative or salt thereof” (FUJIFILM Corporation, priority 2010, dated 2014)

target: T1, glutathione S-transferase (GST)-fused full-length human Syk protein (Homo sapiens, UniProt P43405); assay: Syk enzyme assay; type: biochemical; settings: Syk enzyme assay, Test Example 1; read-out: IC50 of Syk-inhibitory activity
T1 construct: (GST)-fused full-length human Syk protein; GST (glutathione S-transferase); purchased Carna Biosciences
Procedure: A glutathione S-transferase (GST)-fused full-length human Syk protein (Carna Biosciences), which had been generated using a Baculovirus expression system, was used in the Syk enzyme assay.
15 μl of a reaction solution (1.2 ng Syk, 20 mM HEPES, 10 mM MgCl2, 50 mM NaCl, 2 mM DTT, 0.05% BSA, pH 7.0) containing a Syk protein and a predetermined concentration of a test compound was shaken for 2 minutes, and it was then left at rest at room temperature for 13 minutes. Thereafter, 5 μl of Biotin-EDPDYEWPSA-NH2 (final concentration: 0.4 μM) serving as a substrate peptide and 5 μl of ATP (final concentration: 27 μM) were added to the reaction solution, and the obtained mixture was then shaken for 2 minutes. The reaction solution was further left at rest at room temperature for 40 minutes, so as to carry out an enzyme reaction.
Thereafter, 50 μl of a reaction termination solution [5 μg/ml Streptavidin, 0.18 μg/ml PT66-K, 30 mM HEPES (pH 7.0), 150 mM KF, 75 mM EDTA, 0.15% BSA, 0.075% Tween20], which contained Streptavidin-Xlent (Cisbio) and Mab PT66-K (Cisbio), was added to the reaction solution to terminate the enzyme reaction. At the same time, the reaction solution was left at rest at room temperature for 1 hour, so as to carry out an antigen-antibody reaction. Thereafter, using EnVision (PerkinElmer), the time-resolved fluorescence was measured at 615 nm and 665 nm, so that the phosphorylation of the substrate peptide was measured.
In addition, the following are standards for evaluating IC50 of Syk-inhibitory activity used in Table 21. • A: Up to 10 nM • B: 10 to 50 nM • C: 50 to 100 nM • D: 100 to 1000 nM The set of numbers (XYZ-xyz) given in each Example number column indicates the corresponding Example number (Example XYZ-xyz) in Table 21.

Structure (SMILES)	IC50 [nM]
NC(=O)c1cc(F)c(N[C@@H]2CCCC[C@@H]2N)nc1Nc1cncc(-c2ccccc2Cl)c1 (relative stereo) [Example 004-146, 6-(cis-2-aminocyclohexylamino)-2-((5-(2-chlorophenyl)pyridin-3-yl)amino)-5-fluoronicotinamide]	< 10
NC(=O)c1cc(F)c(N[C@@H]2CCCC[C@@H]2N)nc1Nc1cncc(-c2cccc(Cl)c2)c1 (relative stereo) [Example 004-147, 6-(cis-2-aminocyclohexylamino)-2-((5-(3-chlorophenyl)pyridin-3-yl)amino)-5-fluoronicotinamide]	< 10
NC(=O)c1cc(F)c(N[C@@H]2CCCC[C@@H]2N)nc1Nc1cncc(-c2ccc(Cl)cc2)c1 (relative stereo) [Example 004-148, 6-(cis-2-aminocyclohexylamino)-2-((5-(4-chlorophenyl)pyridin-3-yl)amino)-5-fluoronicotinamide]	10 to 50
COC(C)CCOc1ncc(Nc2nc(N[C@@H]3CCCC[C@@H]3N)c(F)cc2C(N)=O)c2ccccc12 (relative stereo) [Example 004-151, 6-(cis-2-aminocyclohexylamino)-5-fluoro-2-((1-(3-methoxybutoxy)isoquinolin-4-yl)amino)-nicotinamide]	100 to 1000
COC(C)CCOc1nccc2c(Nc3nc(N[C@@H]4CCCC[C@@H]4N)c(F)cc3C(N)=O)cccc12 (relative stereo) [Example 004-157, 6-(cis-2-aminocyclohexylamino)-5-fluoro-2-((1-(3-methoxybutoxy)isoquinolin-5-yl)amino)-nicotinamide]	10 to 50
CCOc1nccc2cc(Nc3nc(N[C@@H]4CCCC[C@@H]4N)c(F)cc3C(N)=O)ccc12 (relative stereo) [Example 004-165, 6-(cis-2-aminocyclohexylamino)-2-((1-ethoxyisoquinolin-6-yl)amino)-5-fluoronicotinamide]	< 10
CC(C)COc1nccc2cc(Nc3nc(N[C@@H]4CCCC[C@@H]4N)c(F)cc3C(N)=O)ccc12 (relative stereo) [Example 004-167, 6-(cis-2-aminocyclohexylamino)-5-fluoro-2-((1-isobutoxyisoquinolin-6-yl)amino)-nicotinamide]	< 10
CCOCCOCCOc1nccc2cc(Nc3nc(N[C@@H]4CCCC[C@@H]4N)c(F)cc3C(N)=O)ccc12 (relative stereo) [Example 004-169, 6-(cis-2-aminocyclohexylamino)-2-((1-(2-(2-ethoxyethoxy)ethoxy)isoquinolin-6-yl)amino)-5-fluoronicotinamide]	< 10
CC(C)COCCOc1nccc2cc(Nc3nc(N[C@@H]4CCCC[C@@H]4N)c(F)cc3C(N)=O)ccc12 (relative stereo) [Example 004-170, 6-(cis-2-aminocyclohexylamino)-5-fluoro-2-((1-(2-isobutoxyethoxy)isoquinolin-6-yl)amino)-nicotinamide]	< 10
NC(=O)c1cc(F)c(N[C@@H]2CCCC[C@@H]2N)nc1Nc1ccc2c(OCC3CCCO3)nccc2c1 (relative stereo) [Example 004-171, 6-(cis-2-aminocyclohexylamino)-5-fluoro-2-((1-((tetrahydrofuran-2-yl)-methoxy)isoquinolin-6-yl)amino)nicotinamide]	< 10
CCOc1ccc2cc(Nc3nc(N[C@@H]4CCCC[C@@H]4N)c(F)cc3C(N)=O)cnc2c1 (relative stereo) [Example 004-173, 6-(cis-2-aminocyclohexylamino)-2-((7-ethoxyquinolin-3-yl)amino)-5-fluoronicotinamide]	< 10
CCCOc1ccc2cc(Nc3nc(N[C@@H]4CCCC[C@@H]4N)c(F)cc3C(N)=O)cnc2c1 (relative stereo) [Example 004-174, 6-(cis-2-aminocyclohexylamino)-5-fluoro-2-((7-propoxyquinolin-3-yl)amino)nicotinamide]	< 10
CCOc1cnc2cc(Nc3nc(N[C@@H]4CCCC[C@@H]4N)c(F)cc3C(N)=O)ccc2n1 (relative stereo) [Example 004-176, 6-(cis-2-aminocyclohexylamino)-2-((2-ethoxyquinoxalin-6-yl)amino)-5-fluoronicotinamide]	< 10
CCCOc1cnc2cc(Nc3nc(N[C@@H]4CCCC[C@@H]4N)c(F)cc3C(N)=O)ccc2n1 (relative stereo) [Example 004-177, 6-(cis-2-aminocyclohexylamino)-5-fluoro-2-((2-propoxyquinoxalin-6-yl)amino)nicotinamide]	10 to 50
COCCOc1cnc2cc(Nc3nc(N[C@@H]4CCCC[C@@H]4N)c(F)cc3C(N)=O)ccc2n1 (relative stereo) [Example 004-178, 6-(cis-2-aminocyclohexylamino)-5-fluoro-2-((2-(2-methoxyethoxy)quinoxalin-6-yl)amino)-nicotinamide]	10 to 50
COCCOCCOc1cnc2cc(Nc3nc(N[C@@H]4CCCC[C@@H]4N)c(F)cc3C(N)=O)ccc2n1 (relative stereo) [Example 004-179, 6-(cis-2-aminocyclohexylamino)-5-fluoro-2-((2-(2-(2-methoxyethoxy)ethoxy)quinoxalin-6-yl)amino)nicotinamide]	< 10
CCOc1ccccc1-c1cncc(Nc2nc(N[C@@H]3CCCC[C@@H]3N)c(F)cc2C(N)=O)c1 (relative stereo) [Example 004-182, 6-(cis-2-aminocyclohexylamino)-2-((5-(2-ethoxyphenyl)pyridin-3-yl)amino)-5-fluoronicotinamide]	< 10
CC(C)COc1ccccc1-c1cncc(Nc2nc(N[C@@H]3CCCC[C@@H]3N)c(F)cc2C(N)=O)c1 (relative stereo) [Example 004-183, 6-(cis-2-aminocyclohexylamino)-5-fluoro-2-((5-(2-isobutoxyphenyl)pyridin-3-yl)amino)-nicotinamide]	50 to 100

The next lines start with the values.

IC50 [nM]	Structure (SMILES)
100 to 1000	COCCOc1ncc(Nc2nc(N[C@@H]3CCCC[C@@H]3N)c(F)cc2C(N)=O)c2ccccc12 (relative stereo) [Example 004-150, 6-(cis-2-aminocyclohexylamino)-5-fluoro-2-((1-(2-methoxyethoxy)isoquinolin-4-yl)amino)-nicotinamide]
100 to 1000	CCOCCOCCOc1ncc(Nc2nc(N[C@@H]3CCCC[C@@H]3N)c(F)cc2C(N)=O)c2ccccc12 (relative stereo) [Example 004-152, 6-(cis-2-aminocyclohexylamino)-2-((1-(2-(2-ethoxyethoxy)ethoxy)isoquinolin-4-yl)amino)-5-fluoronicotinamide]
100 to 1000	COc1ncc(Nc2nc(N[C@@H]3CCCC[C@@H]3N)c(F)cc2C(N)=O)c2ccccc12 (relative stereo) [Example 004-153, 6-(cis-2-aminocyclohexylamino)-5-fluoro-2-((1-methoxyisoquinolin-4-yl)amino)-nicotinamide]
100 to 1000	COCC(C)Oc1ncc(Nc2nc(N[C@@H]3CCCC[C@@H]3N)c(F)cc2C(N)=O)c2ccccc12 (relative stereo) [Example 004-154, 6-(cis-2-aminocyclohexylamino)-5-fluoro-2-((1-((1-methoxypropan-2-yl)oxy)isoquinolin-4-yl)amino)nicotinamide]
< 10	COc1nccc2c(Nc3nc(N[C@@H]4CCCC[C@@H]4N)c(F)cc3C(N)=O)cccc12 (relative stereo) [Example 004-155, 6-(cis-2-aminocyclohexylamino)-5-fluoro-2-((1-methoxyisoquinolin-5-yl)amino)-nicotinamide]
< 10	COCC(C)Oc1nccc2c(Nc3nc(N[C@@H]4CCCC[C@@H]4N)c(F)cc3C(N)=O)cccc12 (relative stereo) [Example 004-156, 6-(cis-2-aminocyclohexylamino)-5-fluoro-2-((1-((1-methoxypropan-2-yl)oxy)isoquinolin-5-yl)amino)nicotinamide]
10 to 50	CCOCCOCCOc1nccc2c(Nc3nc(N[C@@H]4CCCC[C@@H]4N)c(F)cc3C(N)=O)cccc12 (relative stereo) [Example 004-158, 6-(cis-2-aminocyclohexylamino)-2-((1-(2-(2-ethoxyethoxy)ethoxy)isoquinolin-5-yl)amino)-5-fluoronicotinamide]
< 10	CC(C)Oc1nccc2cc(Nc3nc(N[C@@H]4CCCC[C@@H]4N)c(F)cc3C(N)=O)ccc12 (relative stereo) [Example 004-166, 6-(cis-2-aminocyclohexylamino)-5-fluoro-2-((1-isopropoxyisoquinolin-6-yl)amino)-nicotinamide]
< 10	COCCOc1ccccc1-c1cncc(Nc2nc(N[C@@H]3CCCC[C@@H]3N)c(F)cc2C(N)=O)c1 (relative stereo) [Example 004-185, 6-(cis-2-aminocyclohexylamino)-5-fluoro-2-((5-(2-(2-methoxyethoxy)phenyl)pyridin-3-yl)amino)nicotinamide]
